Common to all, as to experiment: MIC, microdilution method in 96-well plates
What all share (assay type): cell-based
For orientation: Dilution methods test growth across graded concentrations, often in twofold steps.

One assay concerns Streptococcus pneumoniae. The settings on record: Mueller-Hinton Broth, 37° C., 24 hours of incubation, read-out: MIC Streptococcus pneumoniae. Here is the method: (§1) Minimum inhibitory concentrations (MICs) were determined using the microdilution method in 96-well format plates. Each of the compounds of Examples was dissolved in dimethyl sulfoxide to a concentration of 2 mg/mL and stored at 4° C. until used. They were diluted in Mueller-Hinton Broth (MHB) and used for MIC determination. The range of concentrations tested was […] final concentration using a two-fold dilution system. Plates were incubated at 37° C. and MIC were recorded after 24 hours of incubation for bacteria.
(§2) Linezolid and vancomycin were used as standard antibiotics, respectively.

Another assay deals with Streptococcus pyogenes. The settings on record: Mueller-Hinton Broth, 37° C., 24 hours of incubation, read-out: MIC Streptococcus pyogenes. As for the experimental part: as §1, §2
The subject of assay [1] is Vancomycin-resistant Enterococcus faecalis. The settings on record: Mueller-Hinton Broth, 37° C., 24 hours of incubation, read-out: MIC Vancomycin-resistant Enterococcus faecalis. As for the experimental part: as §1, §2
Assay [2] relates to Methicillin-resistant Staphylococcus aureus. The settings on record: Mueller-Hinton Broth, 37° C., 24 hours of incubation, read-out: MIC Methicillin-resistant Staphylococcus aureus. Here is the method:
as §1, §2

The next assay has as its system Streptococcus agalactiae. The following applies: Mueller-Hinton Broth, 37° C., 24 hours of incubation, read-out: MIC Streptococcus agalactiae. Here is the method: as §1, §2

Molecules are shown by their SMILES. Values after ≈ are worked out from the molar mass of the structure shown.

The term MIC denotes the least concentration at which growth counts as inhibited. As for `CC(C)(C)[C@H](NC(=O)[C@@H](CC(=O)NO)CC1CCCC1)C(=O)N1CCC(NC(=O)c2ccccc2)CC1` [Example 8, (R)-N^1-[(S)-1-(4-Benzoylamino-piperidine-1-carbonyl)-2,2-dimethyl-propyl]-2-cyclopentylmethyl-N^4-hydroxy-succinamide], the MIC was found to be 6.3 µg/mL (≈ 12.2 µM) in the assay with Streptococcus pneumoniae; 1.6 µg/mL (≈ 3.11 µM) with Streptococcus pyogenes; 25 µg/mL (≈ 48.6 µM) in assay [1]; 12.5 µg/mL (≈ 24.3 µM) in assay [2]; 1.6 µg/mL (≈ 3.11 µM) in the assay on Streptococcus agalactiae.
Regarding `CC(C)(C)[C@H](NC(=O)[C@@H](CC(=O)NO)CC1CCCC1)C(=O)N1CCC(NC(=O)Cc2ccccc2)CC1` [Example 10, (R)-2-Cyclopentylmethyl-N^1-[(S)-2,2-dimethyl-1-(4-phenylacetylamino-piperidine-1-carbonyl)-propyl]-N^4-hydroxy-succinamide], the MIC with Streptococcus pneumoniae is 50 µg/mL (≈ 94.6 µM); in the assay with Streptococcus pyogenes, 0.8 µg/mL (≈ 1.51 µM); in assay [1], 50 µg/mL (≈ 94.6 µM); in assay [2] it was 50 µg/mL (≈ 94.6 µM); in the assay on Streptococcus agalactiae it was 0.2 µg/mL (≈ 0.378 µM).
On to `CC(C)(C)[C@H](NC(=O)[C@@H](CC(=O)NO)CC1CCCC1)C(=O)N1CCC(NC(=O)c2ccc(F)cc2)CC1` [Example 15, (R)-2-Cyclopentylmethyl-N^1-{(S)-1-[4-(4-fluoro-benzoylamino)-piperidine-1-carbonyl]-2,2-dimethyl-propyl}-N^4-hydroxy-succinamide], for which the MIC in the assay with Streptococcus pneumoniae was found to be 6.3 µg/mL (≈ 11.8 µM); with Streptococcus pyogenes, 0.2 µg/mL (≈ 0.375 µM); in assay [1], 6.3 µg/mL (≈ 11.8 µM); in assay [2], 6.3 µg/mL (≈ 11.8 µM); in the assay on Streptococcus agalactiae, 0.2 µg/mL (≈ 0.375 µM).
Consider `Cc1ccc(C(=O)NC2CCN(C(=O)[C@@H](NC(=O)[C@@H](CC(=O)NO)CC3CCCC3)C(C)(C)C)CC2)cc1` [Example 20, (R)-2-Cyclopentylmethyl-N^1-{(S)-2,2-dimethyl-1-[4-(4-methyl-benzoylamino)-piperidine-1-carbonyl]-propyl}-N^4-hydroxy-succinamide], for which the minimal inhibitory concentration (MIC) stood at 0.8 µg/mL (≈ 1.51 µM) with Streptococcus pneumoniae; 0.4 µg/mL (≈ 0.757 µM) with Streptococcus pyogenes; 12.5 µg/mL (≈ 23.6 µM) in assay [1]; 25 µg/mL (≈ 47.3 µM) in assay [2]; 0.4 µg/mL (≈ 0.757 µM) in the assay on Streptococcus agalactiae.
For the compound `CC(C)(C)[C@H](NC(=O)[C@H](CC1CCCC1)CN(O)C=O)C(=O)N1CCC(NC(=O)c2ccccc2)CC1` [Example 25, N-(1-{(S)-2-[(R)-2-Cyclopentylmethyl-3-(formyl-hydroxy-amino)-propionylamino]-3,3dimethyl-butyryl}-piperidin-4-yl)-benzamide], the minimal inhibitory concentration (MIC) in the assay with Streptococcus pneumoniae was determined as 6.3 µg/mL (≈ 12.2 µM); in the assay with Streptococcus pyogenes it was 0.4 µg/mL (≈ 0.777 µM); in assay [1], 6.3 µg/mL (≈ 12.2 µM); in assay [2], 12.5 µg/mL (≈ 24.3 µM); with Streptococcus agalactiae, 0.1 µg/mL (≈ 0.194 µM).
`CC(C)(C)[C@H](NC(=O)[C@H](CC1CCCC1)CN(O)C=O)C(=O)N1CCC(NC(=O)c2ccc(C(F)(F)F)cc2)CC1` [Example 28, N-(1-{(S)-2-[(R)-2-Cyclopentylmethyl-3-(formyl-hydroxy-amino)-propionylamino]-3,3-dimethyl-4-butyryl}-piperidin-4-yl)-4-trifluoromethyl-benzamide]: the MIC worked out at 1.6 µg/mL (≈ 2.75 µM) in the assay with Streptococcus pneumoniae; 3.1 µg/mL (≈ 5.32 µM) in the assay on Streptococcus pyogenes; 6.3 µg/mL (≈ 10.8 µM) in assay [1]; 3.1 µg/mL (≈ 5.32 µM) in assay [2]; 0.1 µg/mL (≈ 0.172 µM) with Streptococcus agalactiae.
With `CC(C)(C)[C@H](NC(=O)[C@H](CC1CCCC1)CN(O)C=O)C(=O)N1CCC(NC(=O)c2ccc(C#N)cc2)CC1` [Example 29, 4-Cyano-N-(1-{(S)-2-[(R)-2-cyclopentylmethyl-3-(formyl-hydroxy-amino)-propionylamino]-3,3-dimethyl-butyryl}-piperidin-4-yl)benzamide], the minimal inhibitory concentration (MIC) in the assay on Streptococcus pneumoniae worked out at 1.6 µg/mL (≈ 2.96 µM); in the assay on Streptococcus pyogenes, 0.1 µg/mL (≈ 0.185 µM); in assay [1], 3.1 µg/mL (≈ 5.74 µM); in assay [2] it was 3.1 µg/mL (≈ 5.74 µM); with Streptococcus agalactiae, 0.1 µg/mL (≈ 0.185 µM).
Take `CC(C)(C)[C@H](NC(=O)[C@H](CC1CCCC1)CN(O)C=O)C(=O)N1CCC(NC(=O)c2ccc(F)cc2)CC1` [Example 30, N-(1-{(S)-2-[(R)-2-Cyclopentylmethyl-3-(formyl-hydroxy-amino)-propionylamino]-3,3-dimethyl-butyryl}-piperidin-4-yl)-4-fluoro-benzamide]: the MIC in the assay with Streptococcus pneumoniae was found to be 1.6 µg/mL (≈ 3 µM); with Streptococcus pyogenes, 0.2 µg/mL (≈ 0.375 µM); in assay [1], 6.3 µg/mL (≈ 11.8 µM); in assay [2] it was 6.3 µg/mL (≈ 11.8 µM); in the assay on Streptococcus agalactiae, 0.2 µg/mL (≈ 0.375 µM).
For the compound `Cc1ccc(C(=O)NC2CCN(C(=O)[C@@H](NC(=O)[C@H](CC3CCCC3)CN(O)C=O)C(C)(C)C)CC2)cc1` [Example 38, N-(1-[(S)-2-[(R)-2-Cyclopentylmethyl-3-(formyl-hydroxy-amino)-propionylamino]-3,3-dimethyl-butyryl}-piperidin-4-yl)-4-methyl-benzamide], the MIC in the assay with Streptococcus pneumoniae came out at 1.6 µg/mL (≈ 3.03 µM); with Streptococcus pyogenes it was 3.1 µg/mL (≈ 5.86 µM); in assay [1] it was 3.1 µg/mL (≈ 5.86 µM); in assay [2], 6.3 µg/mL (≈ 11.9 µM); in the assay with Streptococcus agalactiae, 0.1 µg/mL (≈ 0.189 µM).
Turning to `COc1ccc(C(=O)NC2CCN(C(=O)[C@@H](NC(=O)[C@H](CC3CCCC3)CN(O)C=O)C(C)(C)C)CC2)cc1` [Example 39, N-(1-{(S)-2-[(R)-2-Cyclopentylmethyl-3-(formyl-hydroxy-amino)-propionylamino]-3,3-dimethyl-butyryl}-piperidin-4-yl)-4-methoxy-benzamide], the MIC with Streptococcus pneumoniae was determined as 3.1 µg/mL (≈ 5.69 µM); in the assay with Streptococcus pyogenes, 0.2 µg/mL (≈ 0.367 µM); in assay [1], 6.3 µg/mL (≈ 11.6 µM); in assay [2] it was 12.5 µg/mL (≈ 22.9 µM); with Streptococcus agalactiae, 0.2 µg/mL (≈ 0.367 µM).
As to `CC(C)[C@H](NC(=O)[C@H](CC1CCCC1)CN(O)C=O)C(=O)N1CCC(NC(=O)c2ccc(C#N)cc2)CC1` [Example 41, 4-Cyano-N-(1-{(S)-2-[(R)-2-cyclopentylmethyl-3-(formyl-hydroxy-amino)-propionylamino]-3-methyl-butyryl}-piperidin-4-yl)benzamide], the MIC in the assay with Streptococcus pneumoniae was determined as 1.6 µg/mL (≈ 3.04 µM); in the assay on Streptococcus pyogenes, 0.4 µg/mL (≈ 0.761 µM); in assay [1] it was 3.1 µg/mL (≈ 5.9 µM); in assay [2] it was 6.3 µg/mL (≈ 12 µM); with Streptococcus agalactiae, 0.4 µg/mL (≈ 0.761 µM).
In the case of `CC(C)(C)[C@H](NC(=O)[C@H](CC1CCCC1)CN(O)C=O)C(=O)N1CCC(NC(=O)c2cc(F)c(F)cc2F)CC1` [Example 44, N-(1-{(S)-2-[(R)-2-Cyclopentylmethyl-3-(formyl-hydroxy-amino)-propionylamino]-3,3-dimethyl-butyryl}-piperidin-4-yl)-2,4,5-trifluoro-benzamide], the MIC with Streptococcus pneumoniae was determined as 1.6 µg/mL (≈ 2.81 µM); in the assay with Streptococcus pyogenes it was 0.2 µg/mL (≈ 0.352 µM); in assay [1] it was 3.1 µg/mL (≈ 5.45 µM); in assay [2], 3.1 µg/mL (≈ 5.45 µM); with Streptococcus agalactiae it was 0.2 µg/mL (≈ 0.352 µM).
On to `CC(C)(C)[C@H](NC(=O)[C@H](CC1CCCC1)CN(O)C=O)C(=O)N1CCC(NC(=O)Nc2ccc(C(F)(F)F)cc2)CC1` [Example 48, (R)-2-Cyclopentylmethyl-N-((S)-2,2-dimethyl-1-{4-[3-(4-trifluoromethyl-phenyl)-ureido)-piperidine-1-carbonyl}-propyl)-3-(formyl-hydroxy-amino)-propionamide], for which the MIC came to 1.6 µg/mL (≈ 2.68 µM) in the assay on Streptococcus pneumoniae; 0.2 µg/mL (≈ 0.335 µM) with Streptococcus pyogenes; 3.1 µg/mL (≈ 5.19 µM) in assay [1]; 6.3 µg/mL (≈ 10.5 µM) in assay [2]; 0.2 µg/mL (≈ 0.335 µM) in the assay with Streptococcus agalactiae.
Consider `CC(C)(C)[C@H](NC(=O)[C@H](CC1CCCC1)CN(O)C=O)C(=O)N1CCC(NS(=O)(=O)c2ccc(C(F)(F)F)cc2)CC1` [Example 50, (R)-2-Cyclopentylmethyl-N-{(S)-2,2-dimethyl-1-[4-(4-trifluoromethyl-benzenesulfonylamino)-piperidine-1-carbonyl]-propyl}-3-(formyl-hydroxy-amino)-propionamide], for which the MIC worked out at 1.6 µg/mL (≈ 2.59 µM) in the assay with Streptococcus pneumoniae; 0.4 µg/mL (≈ 0.646 µM) in the assay with Streptococcus pyogenes; 3.1 µg/mL (≈ 5.01 µM) in assay [1]; 6.3 µg/mL (≈ 10.2 µM) in assay [2]; 0.4 µg/mL (≈ 0.646 µM) in the assay on Streptococcus agalactiae.
